System: ABSSSI known or suspected to be due to Gram-positive pathogens
Assay: Phase 3 oral omadacycline vs oral linezolid in ABSSSI: Investigator's Assessment of Clinical Response at PTE
Assay type: in vivo, human
Conditions: for Overall Clinical Success at PTE, %: micro-mITT, % of N1
[1] = Cellulitis/erysipelas, actual type, mITT
[2] = Cellulitis/erysipelas, as randomized, mITT
[3] = Major Abscess, actual type, mITT
[4] = Major Abscess, as randomized, mITT
[5] = Wound Infection, actual type, mITT
[6] = Wound Infection, as randomized, mITT

CC(=O)NCC1CN(c2ccc(N3CCOCC3)c(F)c2)C(=O)O1 (stereo not drawn) [Linezolid, N-[[3-(3-fluoro-4-morpholinophenyl)-2-oxooxazolidin-5-yl]methyl]acetamide, reference compound]
Overall clinical response at PTE: Clinical Success (Cellulitis/erysipelas, actual type of infection, investigator assessment, mITT): 78 (92.9) n (%)
Overall clinical response at PTE: Clinical Failure [1]: 1 (1.2) n (%)
Overall clinical response at PTE: Clinical Failure or Indeterminate [1]: 6 (7.1) n (%)
Overall clinical response at PTE: Indeterminate [1]: 5 (6.0) n (%)
Overall clinical response at PTE: Clinical Failure [2]: 1 (1.2) n (%)
Overall clinical response at PTE: Clinical Failure or Indeterminate [2]: 6 (7.1) n (%)
Overall clinical response at PTE: Indeterminate [2]: 5 (6.0) n (%)
Overall clinical response at PTE: Clinical Success (Cellulitis/erysipelas, type of infection as randomized, investigator assessment, mITT): 78 (92.9) n (%)
Overall clinical response at PTE: Clinical Success (Major Abscess, actual type of infection, investigator assessment, mITT): 49 (79.0) n (%)
Overall clinical response at PTE: Clinical Failure [3]: 3 (4.8) n (%)
Overall clinical response at PTE: Clinical Failure or Indeterminate [3]: 13 (21.0) n (%)
Overall clinical response at PTE: Indeterminate [3]: 10 (16.1) n (%)
Overall clinical response at PTE: Clinical Failure [4]: 3 (4.8) n (%)
Overall clinical response at PTE: Clinical Failure or Indeterminate [4]: 13 (21.0) n (%)
Overall clinical response at PTE: Indeterminate [4]: 10 (16.1) n (%)
Overall clinical response at PTE: Clinical Success (Major Abscess, type of infection as randomized, investigator assessment, mITT): 49 (79.0) n (%)
Overall clinical response at PTE: Clinical Success (Wound Infection, actual type of infection, investigator assessment, mITT): 164 (76.6) n (%)
Overall clinical response at PTE: Clinical Failure [5]: 17 (7.9) n (%)
Overall clinical response at PTE: Clinical Failure or Indeterminate [5]: 50 (23.4) n (%)
Overall clinical response at PTE: Indeterminate [5]: 33 (15.4) n (%)
Overall clinical response at PTE: Clinical Failure [6]: 17 (7.9) n (%)
Overall clinical response at PTE: Clinical Failure or Indeterminate [6]: 50 (23.4) n (%)
Overall clinical response at PTE: Indeterminate [6]: 33 (15.4) n (%)
Overall clinical response at PTE: Clinical Success (Wound Infection, type of infection as randomized, investigator assessment, mITT): 164 (76.6) n (%)
Overall Clinical Success at PTE, % (baseline pathogen Clostridium perfringens, investigator assessment): (77.8) %
Overall Clinical Success at PTE, % (baseline pathogen Enterobacter cloacae, investigator assessment): (100.0) %
Overall Clinical Success at PTE, % (baseline pathogen Enterococcus faecalis VRE, investigator assessment): (100.0) %
Overall Clinical Success at PTE, % (baseline pathogen Enterococcus faecalis VSE, investigator assessment): (70.0) %
Overall Clinical Success at PTE, % (baseline pathogen Enterococcus faecalis, investigator assessment): (75.0) %
Overall Clinical Success at PTE, % (baseline pathogen Enterococcus faecium VSE, investigator assessment): (100.0) %
Overall Clinical Success at PTE, % (baseline pathogen Enterococcus faecium, investigator assessment): (100.0) %
Overall Clinical Success at PTE, % (baseline pathogen Escherichia coli, investigator assessment): (100.0) %
Overall Clinical Success at PTE, % (baseline pathogen Finegoldia magna, investigator assessment): (0.0) %
Overall Clinical Success at PTE, % (baseline pathogen Klebsiella pneumoniae, investigator assessment): (66.7) %
Overall Clinical Success at PTE, % (baseline pathogen MRSA, investigator assessment): (79.4) %
Overall Clinical Success at PTE, % (baseline pathogen MSSA, investigator assessment): (79.2) %
Overall Clinical Success at PTE, % (baseline pathogen Prevotella denticola, investigator assessment): (0.0) %
Overall Clinical Success at PTE, % (baseline pathogen Prevotella melaninogenica, investigator assessment): (100.0) %
Overall Clinical Success at PTE, % (baseline pathogen Staphylococcus aureus, investigator assessment): (79.8) %
Overall Clinical Success at PTE, % (baseline pathogen Streptococcus agalactiae, investigator assessment): (50.0) %
Overall Clinical Success at PTE, % (baseline pathogen Streptococcus anginosus group, investigator assessment): (73.3) %
Overall Clinical Success at PTE, % (baseline pathogen Streptococcus anginosus, investigator assessment): (80.0) %
Overall Clinical Success at PTE, % (baseline pathogen Streptococcus constellatus, investigator assessment): (71.4) %
Overall Clinical Success at PTE, % (baseline pathogen Streptococcus intermedius, investigator assessment): (66.7) %
Overall Clinical Success at PTE, % (baseline pathogen Streptococcus pyogenes, investigator assessment): (56.3) %
Overall clinical response at PTE: Clinical Failure (investigator assessment, CE-PTE): 13 (4.5) n (%)
Overall clinical response at PTE: Clinical Success (investigator assessment, CE-PTE (N = 284 / N = 292)): 279 (95.5) n (%)
Overall clinical response at PTE: Clinical Failure (investigator assessment, mITT): 21 (5.8) n (%)
Overall clinical response at PTE: Clinical Failure or Indeterminate (investigator assessment, mITT): 69 (19.2) n (%)
Overall clinical response at PTE: Indeterminate (investigator assessment, mITT): 48 (13.3) n (%)
Overall clinical response at PTE: Clinical Success (investigator assessment, mITT (N = 360 per arm)): 291 (80.8) n (%)

Source: patent publication US10111890B2, “9-aminomethyl minocycline compounds and uses thereof” (Paratek Pharmaceuticals, Inc., priority 2016, dated 2018)
